Results from ChEMBL document CHEMBL5131396, “Structure-activity relationship for the folding intermediate-selective inhibition of DYRK1A” (Eur J Med Chem, 2022).
Calls of active or inactive are those of the source. The calls are words filed in the database; no cut-off is given here.

Legend:
[1] = biological target: T1, Dual specificity tyrosine-phosphorylation-regulated kinase 1A (Homo sapiens, UniProt Q13627); experiment: Inhibition of FLAG-tagged full-length human recombinant DYRK1A (127 to 485 residues) expressed in Escherichia coli assessed as reduction in autophosphorylation at Ser97 residue by Western blot analysis
HEK293 = experiment: Cytotoxicity against HEK293 cells up to 8 uM; type: toxicity, cell-based; conditions: human, hek293, 8 µM
[2] = biological target: T1, Dual specificity tyrosine-phosphorylation-regulated kinase 1A; experiment: Inhibition of FLAG-tagged full-length human recombinant DYRK1A (127 to 485 residues) expressed in Escherichia coli assessed as reduction in phosphorylated tyrosine level by Western blot analysis; conditions: dose <= 32.0 µM, DDE = dose-dependent effect
[3] = biological target: Serine/threonine-protein kinase D1 (Homo sapiens) (UniProt Q15139); experiment: Inhibition of recombinant PKD1 in HEK293 cells at 32 uM using DYRKtide peptide as substrate incubated for 45 mins in presence of ATP by Kinase-Glo Luminescent kinase assay
Serine/threonine-protein kinase D1 (Homo sapiens), sequence (Q15139 whole entry, looked up, the tested form may be a part): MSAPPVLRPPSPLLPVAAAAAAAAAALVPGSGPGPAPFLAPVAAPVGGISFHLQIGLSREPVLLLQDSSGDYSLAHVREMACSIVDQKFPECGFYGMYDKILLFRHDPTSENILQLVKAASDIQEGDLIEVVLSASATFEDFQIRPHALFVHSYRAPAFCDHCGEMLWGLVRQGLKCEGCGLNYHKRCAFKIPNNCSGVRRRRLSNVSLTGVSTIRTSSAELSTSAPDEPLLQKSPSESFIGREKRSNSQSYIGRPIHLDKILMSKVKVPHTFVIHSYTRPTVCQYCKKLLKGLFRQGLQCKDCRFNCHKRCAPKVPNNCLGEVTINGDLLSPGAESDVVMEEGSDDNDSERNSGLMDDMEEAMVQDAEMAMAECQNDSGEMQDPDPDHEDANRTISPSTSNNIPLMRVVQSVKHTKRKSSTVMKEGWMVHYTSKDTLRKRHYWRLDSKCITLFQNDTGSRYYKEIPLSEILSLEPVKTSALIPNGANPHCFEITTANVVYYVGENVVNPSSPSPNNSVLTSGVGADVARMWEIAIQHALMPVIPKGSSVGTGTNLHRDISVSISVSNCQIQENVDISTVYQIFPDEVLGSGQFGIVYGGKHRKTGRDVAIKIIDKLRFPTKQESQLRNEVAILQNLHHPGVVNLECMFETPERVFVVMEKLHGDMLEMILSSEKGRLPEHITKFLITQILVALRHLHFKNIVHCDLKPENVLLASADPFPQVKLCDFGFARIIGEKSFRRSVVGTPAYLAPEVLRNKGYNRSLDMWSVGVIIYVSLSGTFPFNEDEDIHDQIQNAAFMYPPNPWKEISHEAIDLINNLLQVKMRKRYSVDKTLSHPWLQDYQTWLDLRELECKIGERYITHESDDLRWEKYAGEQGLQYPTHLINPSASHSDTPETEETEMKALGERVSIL

[4] = biological target: T1, Dual specificity tyrosine-phosphorylation-regulated kinase 1A; experiment: Inhibition of FLAG-tagged full-length human recombinant DYRK1A (127 to 485 residues) expressed in Escherichia coli assessed as reduction in TAU intermolecular phosphorylation incubated for 30 mins by Western blot analysis
[5] = biological target: T1, Dual specificity tyrosine-phosphorylation-regulated kinase 1A; experiment: Induction of degradation of endogenous FLAG-tagged full-length human recombinant DYRK1A (127 to 485 residues) expressed in Escherichia coli in HEK293 cells assessed as decrease in protein level measured after 4 days by Western blot analysis; conditions: dose <= 8.0 µM, time 4.0 day, DDE = dose-dependent effect
[6] = biological target: Serine/threonine-protein kinase D1 (Homo sapiens) (UniProt Q15139); experiment: Inhibition of PKD1 in HEK293 cells at 1 to 2 uM measured after 4 days by Western blot analysis; conditions: dose 1-2 µM, time 4.0 day
[7] = biological target: Rho-associated protein kinase 1 (Homo sapiens) (UniProt Q13464); experiment: Inhibition of ROCK1 in HEK293 cells at 1 to 2 uM measured after 4 days by Western blot analysis; type: cell-based; conditions: dose 1-2 µM, time 4.0 day
Rho-associated protein kinase 1 (Homo sapiens), sequence (Q13464 2-1354 limits assumed): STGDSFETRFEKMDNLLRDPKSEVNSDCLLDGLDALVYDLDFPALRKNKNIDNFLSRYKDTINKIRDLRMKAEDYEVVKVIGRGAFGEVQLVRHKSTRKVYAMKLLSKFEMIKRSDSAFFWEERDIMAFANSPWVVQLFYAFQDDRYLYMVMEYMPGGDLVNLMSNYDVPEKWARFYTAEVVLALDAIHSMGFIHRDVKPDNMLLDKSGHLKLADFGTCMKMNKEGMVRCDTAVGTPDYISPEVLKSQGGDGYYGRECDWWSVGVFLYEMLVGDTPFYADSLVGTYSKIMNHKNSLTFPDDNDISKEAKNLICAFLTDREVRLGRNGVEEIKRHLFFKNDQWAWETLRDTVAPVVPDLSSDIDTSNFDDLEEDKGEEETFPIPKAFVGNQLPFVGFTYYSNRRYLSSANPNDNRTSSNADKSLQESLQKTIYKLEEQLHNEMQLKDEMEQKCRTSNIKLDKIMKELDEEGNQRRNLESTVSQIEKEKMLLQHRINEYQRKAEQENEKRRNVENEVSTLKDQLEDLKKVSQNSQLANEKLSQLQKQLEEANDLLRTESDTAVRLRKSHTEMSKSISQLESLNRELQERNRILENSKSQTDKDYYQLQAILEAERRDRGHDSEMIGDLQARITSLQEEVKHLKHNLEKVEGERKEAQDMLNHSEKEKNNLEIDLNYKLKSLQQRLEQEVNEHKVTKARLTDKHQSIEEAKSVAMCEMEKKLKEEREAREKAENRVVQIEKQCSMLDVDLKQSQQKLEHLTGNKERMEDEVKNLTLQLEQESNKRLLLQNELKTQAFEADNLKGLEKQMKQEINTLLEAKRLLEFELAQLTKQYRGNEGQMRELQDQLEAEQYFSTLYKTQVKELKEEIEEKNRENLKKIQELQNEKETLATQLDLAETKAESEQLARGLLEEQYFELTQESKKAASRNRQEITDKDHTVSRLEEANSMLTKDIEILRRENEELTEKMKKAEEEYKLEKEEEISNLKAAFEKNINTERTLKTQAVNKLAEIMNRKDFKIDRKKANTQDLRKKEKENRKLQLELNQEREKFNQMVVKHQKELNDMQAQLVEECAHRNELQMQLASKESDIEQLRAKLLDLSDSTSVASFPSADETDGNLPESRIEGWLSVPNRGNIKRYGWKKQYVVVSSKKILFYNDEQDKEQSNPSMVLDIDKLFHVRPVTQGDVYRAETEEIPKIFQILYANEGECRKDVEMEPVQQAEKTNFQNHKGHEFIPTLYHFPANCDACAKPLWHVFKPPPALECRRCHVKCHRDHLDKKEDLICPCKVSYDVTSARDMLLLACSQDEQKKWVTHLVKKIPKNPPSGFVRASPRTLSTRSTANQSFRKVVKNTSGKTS

Row | Structure (SMILES) | IC50 [1] | Activity (HEK293) | inhibition [2] | inhibition [3] | other results
1 | COc1ccc(/C=C2\SC(=S)NC2=O)cc1/C=C/C1CCCCC1 | > 32 µM | – | – | – | –
2 | COc1ccc(/C=C2\SC(=S)NC2=O)cc1/C=C/C(C)(C)C | > 32 µM | – | – | – | –
3 | COc1ccc(/C=C2\SC(=S)NC2=O)cc1/C=C/[Si](C)(C)C | > 32 µM | – | – | – | –
4 | COc1ccc(/C=C2\SC(=S)NC2=O)cc1C#C[Si](C)(C)C | – | Non-Toxic | Dde | Active | –
5 | CCOc1cc(/C=C2\SC(=S)NC2=O)ccc1O | – | – | – | – | inhibition [4]: Active
6 | COc1ccc(/C=C2\SC(=S)NC2=O)cc1C#C[Si](C)(c1ccccc1)c1ccccc1 | 0.53 µM | Non-Toxic | Dde | Active | Activity [5]: Dde; inhibition [6]: Active; inhibition [7]: Active
